In patent publication US9656953B2, “Inhibition of cell proliferation” (University of South Florida, priority 2005, dated 2017):
“Also recorded” adds a separate entry of the source.

Assays:
[1] = molecular target: T1, binding of Rb to Raf-1 in A-549 cells (Homo sapiens, UniProt P04049+P06400); test: IP-western, serum stimulated A-549 cells, Rb:Raf-1; assay type: cell-based
T1 construct: endogenous in cells; host or cells: A549
Text: (§1) Lysate preparation, pmmunoprecipitation, and pestern plotting.

U2-OS cells = test: BrdU incorporation, S-phase entry, U2-OS; assay type: cell-based; settings: 20 μM, 18 hours, Rb wild type
Procedure: (§2) Proliferation assays. Bromodeoxyuridine (BrdU) labeling kits were obtained from Roche Biochemicals (Indianapolis, Ind.). Cells were plated in poly-D-lysine coated chamber slides at a density of 10,000 cells per well and rendered quiescent by serum starvation for 24 hours. Cells were then re-stimulated with serum in the presence or absence of the indicated drugs for 18 h. S-phase cells were visualized by microscopy and quantitated by counting 3 fields of 100 in quadruplicate.
Given the selectivity of 3a described in FIGS. 1 and 2 above for disrupting the Rb:Raf-1 interaction, it was examined if 3a can inhibit the proliferation of cells and whether such an inhibition required a functional Rb gene.

H1650 tumors = test: H1650 xenograft in nude mice; assay type: in vivo
cyclin E kinase activity = test: In vitro kinase assay, cyclin E; assay type: biochemical
Procedure: In vitro kinase assay. The kinase reaction for Raf-1 was carried out with 100 nanograms (ng) of Raf-1 (Upstate Signaling, Charlottesville, Va.), 0.5 μg of full-length Rb protein (QED Bioscience, San Diego, Calif.) as the substrate, 10 μM ATP, 10 μCi of [γ-^32P] ATP in the kinase assay buffer in the presence or absence of the drugs at 30° C. for 30 minutes. Cyclin D and E kinase assays are described in (Dasgupta 2004).

A549-sh6 tumors = test: A549-sh6 (Rb shRNA) xenograft in nude mice; assay type: in vivo; settings: 150 mpk orally
Procedure: Animal Studies. Nude mice (Charles River, Wilminton, Mass., USA) were maintained in accordance with Institutional Animal Care and Use Committee (IAUCUC) procedures and guidelines. A549 cells were harvested and resuspended in PBS, and then injected s.c. into the right and left flanks (10×10^6 cells per flank) of 8-week old female nude mice as reported previously (Sun 99). When tumors reached about 100-200 mm^3, animals were dosed intraperitoneally i.p. or orally by gavage with 0.1 mL solution once daily. Control animals received a vehicle, whereas treated animals were given 3a or RRD-238a at the indicated doses. The tumor volumes were determined by measuring the length (l) and the width (w) and calculating the volume (V=lw^2/2) as described previously (Sun 99). Statistical significance between control and treated animals were evaluated using Student's t-test.
Athymic nude mice were implanted with 1×10^7 A549 cells bilaterally and the tumors were allowed to reach 200 mm^3 in size before treatment began. […] Furthermore, to examine whether 3a could affect the growth of tumors lacking Rb in vivo, sh6 and sh8 (shRNA for Rb) cell lines were implanted into the flanks of nude mice. The mice were given 3a orally at 150 mpk and the control groups were administered the vehicle.

PANC1 cells = test: Soft agar assay, PANC1; assay type: cell-based
Procedure: (§3) Soft Agar Assay. Soft agar assays were done in triplicate in 12-well plates (Corning, Corning N.Y.). First, the bottom layer of agar (0.6%) was allowed to solidify at room temperature. Next the top layer of agar was (0.3%) was mixed with 5,000 cells per well and the indicated drug. The drugs were added twice weekly in complete media to the agar wells. Colonies were quantified by staining with MTT (3-(4,5-Dimethylthiazol-2-yl)-2,5-diphenyltetrazolium bromide) 1 mg/mL for 1 hour at 37° C.
(§4) Experiments were also carried out to examine the effect of 3a in inhibiting the adherence-independent growth of cancer cells in soft agar.

[2] = test system: U251MG glioblastoma cell line; test: BrdU incorporation, S-phase entry, U251MG; assay type: cell-based; settings: null for p16 and PTEN
Procedure: as §2

[3] = test system: A549 cells infected with Ad-cyclin D; test: BrdU incorporation, A549 infected with Ad-cyclin D; assay type: cell-based, human; settings: 20 μM of 3a for 36 h
Procedure: as §2
To this end, A549 cells were infected with Ad-E2F1 or Ad-cyclin D, in the presence of 20 μM of 3a for 36 h. Ad-GFP infected cells were used as a control.

[4] = test system: H1650 non-small cell lung cancer cell line; test: BrdU incorporation, S-phase entry, H1650; assay type: cell-based; settings: EGFR mutant NSCLC
Procedure: as §2
Because many cancers contain more than one mutation in tumor suppressor genes or oncogenes, we determined the ability of 3a to inhibit proliferation in cell lines containing alterations in key regulatory genes.

A549 cells [5] = test: BrdU incorporation, S-phase entry, A549; assay type: cell-based, human; settings: 20 μM
Procedure: as §2
(§5) To further confirm that 3a requires a functional Rb to inhibit tumor cell proliferation, A549 cells (human epithelial lung carcinoma) were stably transfected with two different shRNA constructs (sh6 and sh8) to knock down Rb expression.

SK-MEL-5 cells = test: Soft agar assay, SK-MEL-5; assay type: cell-based
Procedure: as §3, §4

A549 cells [6] = test: Soft agar assay, A549; assay type: cell-based, human
Procedure: as §3, §4

[7] = molecular target: T2, Rb:Raf-1 interaction in tumor xenografts (Homo sapiens, UniProt P04049+P06400); test: IP-Western of tumor lysates, Rb:Raf-1; assay type: in vivo, nude mice; settings: both doses
T2 construct: from tissue; host or cells: A549 xenograft tumors from nude mice
Procedure: as §1
At the end of the drug treatment, the A549 tumors were removed from the mice and fixed in formalin or snap frozen in liquid nitrogen for further histochemical analysis. The tumors were analyzed by immunohistochemistry staining with hematoxylin and eosin (H&E), TUNEL, Ki-67, phospho-Rb (807,811), and CD-31. […] Tumors were homogenized and lysates were prepared to assess the inhibition of Rb:Raf-1 interaction in vivo.

SK-MEL-28 cells = test: Soft agar assay, SK-MEL-28; assay type: cell-based
Procedure: as §3, §4

[8] = test system: A549 cells stably expressing sh8; test: BrdU incorporation, A549 Rb shRNA sh8; assay type: cell-based, human; settings: 20 μM, Rb knock down
Procedure: as §2, §5

T2 sequence (P06400 whole entry): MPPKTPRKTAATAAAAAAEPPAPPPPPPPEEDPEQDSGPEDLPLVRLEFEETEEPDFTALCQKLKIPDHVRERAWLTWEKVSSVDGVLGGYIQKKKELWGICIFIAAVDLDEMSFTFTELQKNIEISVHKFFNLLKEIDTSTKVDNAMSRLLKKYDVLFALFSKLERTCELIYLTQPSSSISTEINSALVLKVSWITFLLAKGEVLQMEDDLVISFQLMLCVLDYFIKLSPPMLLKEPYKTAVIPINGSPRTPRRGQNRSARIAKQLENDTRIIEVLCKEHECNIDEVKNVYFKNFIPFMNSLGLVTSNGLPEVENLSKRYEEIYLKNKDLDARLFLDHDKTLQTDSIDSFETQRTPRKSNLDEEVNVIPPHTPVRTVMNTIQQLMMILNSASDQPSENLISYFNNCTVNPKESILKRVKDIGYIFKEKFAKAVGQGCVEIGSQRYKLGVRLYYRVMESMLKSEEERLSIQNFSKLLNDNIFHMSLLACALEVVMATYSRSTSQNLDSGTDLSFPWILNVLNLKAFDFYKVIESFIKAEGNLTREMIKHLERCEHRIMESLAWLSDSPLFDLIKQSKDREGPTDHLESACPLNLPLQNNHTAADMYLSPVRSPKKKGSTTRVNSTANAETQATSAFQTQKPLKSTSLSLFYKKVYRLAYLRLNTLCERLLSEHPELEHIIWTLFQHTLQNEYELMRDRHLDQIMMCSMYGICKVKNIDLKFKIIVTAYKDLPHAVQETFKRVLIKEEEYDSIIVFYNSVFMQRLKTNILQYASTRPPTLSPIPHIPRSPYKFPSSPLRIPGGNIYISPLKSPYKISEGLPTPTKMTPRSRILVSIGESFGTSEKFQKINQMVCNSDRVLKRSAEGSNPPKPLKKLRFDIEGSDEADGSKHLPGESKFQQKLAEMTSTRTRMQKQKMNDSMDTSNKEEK
T2 sequence (P04049 whole entry): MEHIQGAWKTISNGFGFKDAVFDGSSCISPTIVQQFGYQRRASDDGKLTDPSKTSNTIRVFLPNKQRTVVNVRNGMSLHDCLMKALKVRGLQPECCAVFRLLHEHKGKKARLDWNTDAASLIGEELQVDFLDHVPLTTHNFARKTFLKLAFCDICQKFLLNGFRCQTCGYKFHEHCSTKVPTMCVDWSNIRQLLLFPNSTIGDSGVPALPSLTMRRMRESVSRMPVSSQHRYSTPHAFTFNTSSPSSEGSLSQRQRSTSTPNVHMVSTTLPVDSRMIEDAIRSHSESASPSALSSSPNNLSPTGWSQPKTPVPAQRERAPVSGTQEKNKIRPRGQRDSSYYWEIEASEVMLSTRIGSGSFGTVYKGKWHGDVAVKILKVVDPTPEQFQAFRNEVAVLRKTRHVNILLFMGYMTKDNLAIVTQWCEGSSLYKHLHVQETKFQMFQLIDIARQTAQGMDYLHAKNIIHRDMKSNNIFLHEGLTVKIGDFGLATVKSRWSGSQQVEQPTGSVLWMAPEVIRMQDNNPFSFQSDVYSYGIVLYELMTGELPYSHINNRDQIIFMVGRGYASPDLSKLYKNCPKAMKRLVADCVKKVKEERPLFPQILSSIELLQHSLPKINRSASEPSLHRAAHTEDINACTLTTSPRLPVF
T1 sequence (P06400 whole entry): as the sequence (P06400 whole entry) above
T1 sequence (P04049 whole entry): as the sequence (P04049 whole entry) above

## Cl.N=C(N)SCc1ccc(Cl)cc1Cl [Compound 3a]
[1]
  serum stimulated binding of Rb to Raf-1: inhibited
U2-OS cells
  S-phase entry (BrdU), U2-OS: inhibited S-phase entry
H1650 tumors; 50 mpk i.p.
  H1650 tumor growth in words: inhibited H1650 xenograft tumor growth; also recorded: inhibited the growth of these tumors significantly
H1650 tumors; 50 mpk/day i.p., vehicle 2185±326 mm^3
  tumor size, H1650 xenograft: 557±76 mm3
Cyclin E kinase activity
  cyclin E kinase activity: does not inhibit; also recorded: did not affect the kinase activities
A549-sh6 tumors
  tumor growth, A549-sh6 tumors lacking Rb: unable to inhibit tumor growth; also recorded: did not respond
PANC1 cells
  adherence-independent growth in soft agar, PANC1: significantly inhibited the growth
[2]
  S-phase entry, U251MG: inhibited S-phase entry
[3]
  rescue of anti-proliferative activity by cyclin D over expression: only a partial effect
[4]
  inhibition of S-phase entry, H1650: 90%
A549 cells [5]
  S-phase entry (BrdU), parental A549: arrests wild-type A549 cells; also recorded: very effective
SK-MEL-5 cells
  adherence-independent growth in soft agar, SK-MEL-5: significantly inhibited the growth
A549 cells [6]
  adherence-independent growth in soft agar, A549: significantly inhibited the growth
[7]
  Rb:Raf-1 interaction in tumor lysates: inhibit the Rb:Raf-1 interaction in tumor lysates
SK-MEL-28 cells
  adherence-independent growth in soft agar, SK-MEL-28: significantly inhibited the growth
[8]
  S-phase entry (BrdU), A549 sh8: does not inhibit the proliferation; also recorded: no effect
